US6545002B1 (University of Virginia Patent Foundation, priority 1999, dated 2003)
Read-outs that look alike come from different tables or passages of the source.

Key:
[1] = molecular target: T1, human A3 receptors (hA3) (Homo sapiens, UniProt P0DMS8); assay: Displacement of [125I]ABA binding at human A3 receptors expressed in HEK-293 cells
T1 construct: expressed in transfected cells; host or cells: HEK-293
T1 sequence (P0DMS8 1-318): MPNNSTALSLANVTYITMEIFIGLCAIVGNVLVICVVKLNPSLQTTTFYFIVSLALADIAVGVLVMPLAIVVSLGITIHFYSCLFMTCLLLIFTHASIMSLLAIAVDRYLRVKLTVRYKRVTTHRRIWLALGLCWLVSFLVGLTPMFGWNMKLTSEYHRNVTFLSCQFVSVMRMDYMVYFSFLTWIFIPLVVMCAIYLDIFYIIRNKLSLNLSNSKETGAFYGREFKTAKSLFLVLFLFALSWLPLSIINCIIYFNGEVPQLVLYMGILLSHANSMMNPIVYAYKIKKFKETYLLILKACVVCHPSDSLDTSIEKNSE

[2] = molecular target: T2, human A2B receptors (hA2B) (Homo sapiens, UniProt P29275); assay: Radioligand binding ([125I]ABOPX / [3H]ZM241385) at human A2B receptors expressed in HEK-293 cells; conditions: for rA1/hA2B: Ki ratio
T2 construct: expressed in transfected cells; host or cells: HEK-293 (HEK-A2B, G418-selected)
T2 sequence (P29275 1-332): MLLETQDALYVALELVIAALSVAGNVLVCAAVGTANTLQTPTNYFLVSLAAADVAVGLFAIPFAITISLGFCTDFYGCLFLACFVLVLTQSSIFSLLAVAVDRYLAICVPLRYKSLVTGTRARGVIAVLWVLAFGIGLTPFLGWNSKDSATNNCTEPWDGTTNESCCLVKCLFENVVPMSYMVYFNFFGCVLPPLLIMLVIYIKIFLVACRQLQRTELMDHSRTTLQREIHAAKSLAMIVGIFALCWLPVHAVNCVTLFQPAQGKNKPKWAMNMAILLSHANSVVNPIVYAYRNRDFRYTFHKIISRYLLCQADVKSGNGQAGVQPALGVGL

[3] = molecular target: recombinant human A2A receptors (hA2A) (Homo sapiens, UniProt P29274); assay: Radioligand binding (125I-ZM241385) at recombinant human A2A receptors in HEK-293 cells
Method: The potency of the xanthine derivatives at human A2B receptors was evaluated using two binding assays. […] In order to determine selectivity, the xanthines were evaluated using standard binding assays at A1, A2A, and A3 receptors.

[4] = molecular target: T3, rat A2A receptors (rA2A) (Rattus norvegicus, UniProt P30543); assay: Displacement of [3H]CGS 21680 binding in rat striatal membranes
T3 construct: to A2A receptors from rat striatal membranes was performed as described; from tissue; host or cells: rat striatal membranes
Method: (§1) Bruns, R. F. et al., Naunyn-Schmiedeberg's Arch. […] Binding of [^3H]R-N^6-phenylisopropyladenosine. Schwabe, U. et al., Naunyn-Schmiedeberg's Arch. […] (Dupont NEN, Boston, Mass.) to A2A receptors from rat striatal membranes was performed as described. […] All non-radioactive compounds were initially dissolved in DMSO, and diluted with buffer to the final concentration, where the amount of DMSO never exceeded 2%. Incubations were terminated by rapid filtration over Whatman GF/B filters, using a Brandell cell harvester (Brandell, Gaithersburg, Md.). The tubes were rinsed three times with 3 mL buffer each.
(§2) At least six different concentrations of competitor, spanning 3 orders of magnitude adjusted appropriately for the IC50 of each compound, were used. IC50 values, calculated with the nonlinear regression method implemented in (Graph-Pad Prism, San Diego, Calif.), were converted to apparent Ki values as described. Linden, J., J. Cycl. Nucl.

[5] = molecular target: T4, recombinant human A1 receptors (hA1) (Homo sapiens, UniProt P30542); assay: Radioligand binding ([3H]CPX) at recombinant human A1 receptors in HEK-293 cells
T4 sequence (P30542 1-326): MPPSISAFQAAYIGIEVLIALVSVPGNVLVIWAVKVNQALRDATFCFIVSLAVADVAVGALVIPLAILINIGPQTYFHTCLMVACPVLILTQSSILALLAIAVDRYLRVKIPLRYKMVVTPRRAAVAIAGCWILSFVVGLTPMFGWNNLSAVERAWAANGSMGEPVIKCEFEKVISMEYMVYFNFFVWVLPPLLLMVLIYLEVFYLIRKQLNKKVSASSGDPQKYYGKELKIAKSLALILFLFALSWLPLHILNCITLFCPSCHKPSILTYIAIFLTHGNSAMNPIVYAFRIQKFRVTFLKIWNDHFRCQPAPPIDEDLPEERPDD

[6] = molecular target: T5, rat A1 receptors (rA1) (Rattus norvegicus, UniProt P25099); assay: Displacement of [3H]R-PIA binding in rat brain (cerebral cortical) membranes
T5 construct: to A1 receptors from rat cerebral cortical membranes; from tissue; host or cells: rat cerebral cortical (brain) membranes
T5 sequence (P25099 1-326): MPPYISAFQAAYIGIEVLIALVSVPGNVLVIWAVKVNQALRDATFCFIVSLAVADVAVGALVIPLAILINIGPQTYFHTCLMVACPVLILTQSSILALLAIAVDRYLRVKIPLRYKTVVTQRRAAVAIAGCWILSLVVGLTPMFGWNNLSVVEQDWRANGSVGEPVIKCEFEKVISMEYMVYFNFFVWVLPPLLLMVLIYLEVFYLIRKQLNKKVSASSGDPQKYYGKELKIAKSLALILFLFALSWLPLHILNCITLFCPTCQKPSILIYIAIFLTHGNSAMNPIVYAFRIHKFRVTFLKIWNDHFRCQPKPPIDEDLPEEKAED
Method: as §1, §2

[7] = Table 2, read-out: hA3 Ki or IC50
[8] = Table 2, read-out: hA2B Ki or IC50
[9] = read-out: hA2A Ki or IC50, Table 2
[10] = Table 2, read-out: rA2A Ki or IC50
[11] = read-out: hA1 Ki or IC50, Table 2
[12] = Table 3, read-out: hA3 Ki or IC50
[13] = Table 3, read-out: hA2B Ki or IC50
[14] = Table 3, read-out: rA1 Ki or IC50
[15] = Table 3, read-out: rA2A Ki or IC50
[16] = Table 4, footnote a: [125I]ABA, read-out: hA3 Ki (value marked ^a)
[17] = Table 4, footnote a: [125I]-ABOPX, read-out: hA2B Ki (value marked ^a) (converted)
[18] = Table 4, unmarked value, first of two binding assays, read-out: hA2B Ki
[19] = read-out: hA2A Ki, values marked (h)^a, Table 4, vs [125I]ZM241385, HEK-293
[20] = read-out: hA1 Ki, values marked (h)^a, Table 4, vs [3H]CPX, HEK-293
[21] = Table 2, read-out: rA1 Ki or IC50

recombinant human A2A receptors (hA2A), sequence (P29274 whole entry): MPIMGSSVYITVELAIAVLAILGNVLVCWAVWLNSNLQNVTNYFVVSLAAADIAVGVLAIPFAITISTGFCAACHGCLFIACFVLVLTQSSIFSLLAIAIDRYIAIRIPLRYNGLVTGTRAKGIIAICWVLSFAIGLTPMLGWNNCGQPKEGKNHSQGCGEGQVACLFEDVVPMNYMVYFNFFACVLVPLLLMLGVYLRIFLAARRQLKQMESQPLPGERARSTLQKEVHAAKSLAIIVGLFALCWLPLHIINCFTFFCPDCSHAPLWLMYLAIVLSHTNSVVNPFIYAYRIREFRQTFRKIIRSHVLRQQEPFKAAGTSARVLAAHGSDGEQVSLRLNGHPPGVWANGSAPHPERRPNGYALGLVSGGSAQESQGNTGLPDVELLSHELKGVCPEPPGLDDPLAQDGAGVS
T3 sequence (P30543 whole entry): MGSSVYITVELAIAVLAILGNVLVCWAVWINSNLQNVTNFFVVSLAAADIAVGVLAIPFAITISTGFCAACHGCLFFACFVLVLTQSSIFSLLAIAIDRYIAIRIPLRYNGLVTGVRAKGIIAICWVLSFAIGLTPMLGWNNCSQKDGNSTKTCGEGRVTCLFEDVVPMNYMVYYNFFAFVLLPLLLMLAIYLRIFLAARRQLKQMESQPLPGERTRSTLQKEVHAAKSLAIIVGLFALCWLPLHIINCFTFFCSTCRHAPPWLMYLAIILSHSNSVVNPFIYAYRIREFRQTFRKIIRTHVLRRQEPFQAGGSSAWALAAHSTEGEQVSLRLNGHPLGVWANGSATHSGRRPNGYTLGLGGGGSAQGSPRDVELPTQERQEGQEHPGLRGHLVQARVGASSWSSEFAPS

SMILES	Ki [1, 7]	Ki [2, 8]	Ki [3, 9]	Ki [4, 10]	melting point	Ki [5, 11]	Ki [6, 21]	further results
CCCn1c(=O)c2[nH]c(-c3ccc(OCC(=O)Nc4ccccc4)cc3)nc2n(CCC)c1=O [Compound 12, 8-[4-[(Phenylcarbamoylmethyl)oxy]phenyl]-1,3-di-(n-propyl)-xanthine]	137 ± 54 nM	1.48 ± 0.63 nM	25.8 ± 4.5 nM	45.6 ± 1.4 nM	301 to 302 °C	40.1 ± 5.1 nM	–	–
CCCn1c(=O)c2[nH]c(-c3ccc(/C=C/C(=O)NN4C(=O)C(C)=C(C)C4=O)cc3)nc2n(CCC)c1=O [Compound 34, 8-(4-(2-Carboxy-trans-vinyl)phenyl)-1,3-di-(n-propyl)xanthine N′,N′-[(1,2-Dimethyl)maleyl]hydrizide]	–	–	–	–	302 to 303 °C	–	–	Ki [1, 12]: 31 ± 3.1 nM; Ki [2, 13]: 16.7 ± 3 nM; Ki [6, 14]: 3.94 ± 1.2 nM; Ki ([3]; read-out: hA2A Ki, values marked (h), Table 3): 223 ± 55 nM; Ki [4, 15]: 406 ± 105 nM; Ki ([5]; read-out: hA1 Ki, values marked (h), Table 3): 105 ± 5 nM
CCCn1c(=O)c2[nH]c(-c3ccc(OCC(=O)NN4C(=O)c5ccccc5C4=O)cc3)nc2n(CCC)c1=O [Compound 57, 8-[4-[(Carboxymethyl)oxy]phenyl]-1,3-di-(n-propyl)xanthine N,N-Phthaloylhydrazide]	–	–	–	–	–	–	–	Ki [1, 16]: 147 ± 21 nM; rA1/hA2B ([2]; Table 4): 0.41; Ki [2, 17]: 46.4 nM; Ki [2, 18]: 64.4 ± 0.8 nM; Ki ([6]; Table 4, read-out: rA1 Ki): 26.3 ± 2.3 nM; Ki [3, 19]: 359 nM; Ki ([4]; Table 4, read-out: rA2A Ki): 392 ± 117 nM; Ki [5, 20]: 210 nM
CCCn1c(=O)c2[nH]c(-c3ccc(OCC(=O)NCc4ccccc4)cc3)nc2n(CCC)c1=O [Compound 13, 8-[4-[(Benzylcarbamoylmethyl)oxy]phenyl]-1,3-di-(n-propyl)-xanthine]	79.2 ± 17.8 nM	–	–	–	268 °C	54.7 ± 21.2 nM	5.02 ± 0.55 nM	Ki ([3]; read-out: hA2A Ki or IC50): 23.8 ± 5.71 nM; Ki ([4]; read-out: rA2A Ki or IC50): 25.9 ± 7.6 nM
CCCn1c(=O)[nH]c(=O)c2[nH]c(-c3ccc(OCC(=O)NN4C(=O)C(C)=C(C)C4=O)cc3)nc21 [Compound 48]	–	–	–	–	–	–	–	Ki [1, 16]: 14200 nM; rA1/hA2B ([2]; Table 4): 2.0; Ki [2, 17]: 1900 nM; Ki [2, 18]: 1800 nM; Ki ([6]; Table 4, read-out: rA1 Ki): 3590 ± 920 nM; Ki [3, 19]: 5480 nM; rA2A % displacement of specific binding ([4]; Table 4, at 100,000 nM): 36 ± 4%; Ki [5, 20]: 8080 nM
CCCn1c(=O)c2[nH]c(-c3ccc(OCC(=O)Nc4ccccc4C(C)=O)cc3)nc2n(CCC)c1=O [Compound 18, 8-[4-[((2-Acetylphenyl)carbamoylmethyl)oxy]phenyl]-1,3-di-(n-propyl)xanthine]	61.9 ± 3.4 nM	2.74 ± 1.01 nM	431 ± 176 nM	434 ± 129 nM	294 °C	335 ± 64 nM	27.9 ± 1.6 nM	selectivity for human A2B versus human A1 receptors [2]: 120 fold; selectivity for human A2B versus human A2A receptors [2]: 160 fold; selectivity for human A2B versus human A3 receptors [2]: 23 fold; selectivity for human A2B versus rat A1 receptors [2]: 10 fold; selectivity for human A2B versus rat A2A receptors [2]: 160 fold
CCCn1c(=O)c2[nH]c(-c3ccc(/C=C/C(=O)Nc4ccccc4C(C)=O)cc3)nc2n(CCC)c1=O [Compound 35, 8-[4(2-(2-Acetylphenyl)carbamoyl-trans-vinyl)phenyl]-1,3-di-(n-propyl)xanthine]	–	–	–	–	281 to 283 °C	–	–	Ki [1, 12]: 121 ± 138 nM; Ki [2, 13]: 3.65 ± 0.98 nM; Ki [6, 14]: 7.67 ± 2.2 nM; Ki [4, 15]: 143 ± 50 nM
CCCn1c(=O)c2[nH]c(-c3ccc(OCC(=O)NNC(C)=O)cc3)nc2n(CCC)c1=O [Compound 41, 8-[4-[(Carboxymethyl)oxy]phenyl]-1,3-di-(n-propyl)xanthine N-Acetylhydrazide]	–	–	–	–	–	–	–	Ki [1, 16]: 30.9 ± 8.2 nM; rA1/hA2B ([2]; Table 4): 0.10; Ki [2, 17]: 33.8 ± 13.7 nM; Ki [2, 18]: 65.4 ± 6.5 nM; Ki ([6]; Table 4, read-out: rA1 Ki): 6.51 ± 1.24 nM; Ki [3, 19]: 186 ± 9 nM; Ki ([4]; Table 4, read-out: rA2A Ki): 227 ± 64 nM; Ki [5, 20]: 125 ± 14 nM
CCCn1c(=O)c2[nH]c(-c3ccc(OCC(=O)Nc4ccc(I)cc4)cc3)nc2n(CCC)c1=O [Compound 33, 8-[4-[((4-Iodo)phenylcarbamoylmethyl)oxy]phenyl]-1,3-di-(n-propyl)xanthine]	1270 nM	–	5140 nM	152 ± 47 nM	> 310 °C	293 ± 67 nM	15.7 ± 4.2 nM	selectivity for human A2B versus human A1 receptors [2]: 140 fold; selectivity for human A2B versus human A2A receptors [2]: 2400 fold; selectivity for human A2B versus human A3 receptors [2]: 600 fold; Ki ([2]; read-out: Ki value at human A2B receptors): 2.13 nM
CCCn1c(=O)c2[nH]c(-c3ccc(OCC(=O)Nc4ccc(C(=O)OC)cc4)cc3)nc2n(CCC)c1=O [Compound 21, 8-[4-[((4-Methoxycarbonyl)phenylcarbamoylmethyl)oxy]phenyl]-1,3-di-(n-propyl)xanthine]	363 ± 148 nM	3.93 ± 1.35 nM	3100 nM	541 ± 128 nM	> 310 °C	225 ± 9 nM	38.4 ± 3.9 nM	–
CCCn1c(=O)c2[nH]c(-c3ccc(OCC(=O)Nc4ccc(F)cc4)cc3)nc2n(CCC)c1=O [Compound 30, 8-[4-[((4-Fluoro)phenylcarbamoylmethyl)oxy]phenyl]-1,3-di-(n-propyl)xanthine]	391 ± 147 nM	2.22 ± 0.19 nM	16.6 ± 3.6 nM	988 ± 518 nM	298 °C	17.9 ± 4.5 nM	2.72 ± 0.51 nM	selectivity for human A2B versus rat A1 receptors [2]: 1 fold
CCCn1c(=O)c2[nH]c(-c3ccc(OCC(=O)Nc4ccc(Cl)cc4)cc3)nc2n(CCC)c1=O [Compound 31, 8-[4-[((4-Chloro)phenylcarbamoylmethyl)oxy]phenyl]-1,3-di-(n-propyl)xanthine]	1870 nM	2.47 ± 0.71 nM	187 ± 38 nM	995 ± 550 nM	309 °C	49.7 ± 14.2 nM	6.35 ± 1.47 nM	–
CCCn1c(=O)c2[nH]c(-c3ccc(OCC(=O)Nc4ccc(C(C)=O)cc4)cc3)nc2n(CCC)c1=O [Compound 20, 8-[4-[((4-Acetylphenyl)carbamoylmethyl)oxy]phenyl]-1,3-di-(n-propyl)xanthine]	230 ± 23 nM	1.39 ± 0.3 nM	112 ± 37 nM	548 ± 183 nM	–	157 ± 8 nM	37.6 ± 4 nM	selectivity for human A2B versus rat A1 receptors [2]: 27 fold
